Data reported in patent US20090304674A1, “METHODS FOR TREATING DISEASE BY REGULATING CLL CELL SURVIVAL” (priority 2005, published 2009).
“Also recorded” adds a separate entry of the source.

Tests used:
Assay type in all cases: cell-based, human
[1] = tested on: Bcl-2, Bax, Bcl-xL in CLL B cells; test: Immunoblot of Bcl-2, Bax, Bcl-xL expression in CLL B cells; settings: short-term culture of isolated CLL B cells
Experimental: (§1) Cell lysates were prepared with RIPA buffer (10 mM Tris (pH 7.4), 150 mM NaCl, 1% Triton x 100, 1% deoxycholate, 0.1% SDS, 5 mM EDTA), containing 1 mM PMSF, 0.28 TIU/ml aprotinin, 50 μg/ml leupeptin, 1 mM benzamidine, 0.7 μg/ml pepstatin. Lysates were normalized for total protein (20 μg), subjected to SDS-PAGE (4-15% gradient gels, Bio-Rad, Hercules, Calif.) and immunoblot assay. We incubated the blots with secondary antibodies that were conjugated with horseradish peroxidase. Blots then were prepared for enhanced chemiluminescence (ECL) detection system (Amersham, Little Chalfont, Buckinghamshire, UK) and subsequent autoradiography with Super RX film (Fuji, Tokyo, Japan). The mouse mAb against APRIL (APRIL8) was from Alexis Biochemicals. The mouse mAb against inhibitor of kappa B-α (IκκBα was from Imgenex (San Diego, Calif.). The antibodies against anti-phosho-MAP kinase Erk1/2 and anti-MAP kinase Erk1/2-CT were purchased from Upstate Biotechnology. Antibodies against AKT or phospho-AKT (Ser473) were from Cell Signaling (Beverly, Mass.). Rabbit polyclonal antibodies (Mcl-1, Bcl-2, and Bax) were raised against synthetic peptides.21 Also primary antibodies included β-actin (Sigma Immunochemicals, St Louis, Mo.). Anti-p52 and anti-p65 antibodies were purchased from Upstate Biotechnology.

[2] = tested on: Mcl-1 in CLL B cells; test: Immunoblot of Mcl-1 expression in CLL B cells; settings: short-term culture of isolated CLL B cells
Experimental: as §1

[3] = tested on: p44/42 MAPK (ERK1/2) in CLL B cells; test: Immunoblot of ERK1/2 phosphorylation in CLL B cells; settings: SDF-1α 200 ng/ml; for induction of phosphorylation of ERK1/2: 3 or 10 minutes, rhBAFF 50 ng/ml
Experimental: as §1

[4] = tested on: isolated CD19+ CLL B cells; test: Viability of isolated CLL B cells cultured without NLC (DiOC6/PI flow cytometry); settings: rhBAFF 50 ng/ml, rhAPRIL 500 ng/ml; samples of 3 patients
Experimental: (§2) Freshly thawed CLL B cells were cultured at the concentration of 1×10^6/ml under various conditions. Determination of CLL cell viability in this study was based on the analysis of mitochondrial transmembrane potential (Δψm) using 3,3′-dehexyloxacarbocyamine iodine (DiOC6) and cell membrane permeability to PI, as described.22 For viability assays, 100 μl of the cell culture was collected at the indicated time points and transferred to polypropylene tubes containing 100 μl of 60 nmol/l DiOC6 (Molecular Probes) and 10 μg/ml PI in FACS buffer. The cells then were incubated at 37° C. for 15 minutes and analyzed within 30 minutes by flow cytometry using a FACSCalibur (Becton Dickinson). Fluorescence was recorded at 525 nm (FL-1) for DiOC6 and at 600 nm (FL-3) for PI.

[5] = tested on: AKT in CLL B cells; test: Immunoblot of AKT (Ser473) phosphorylation in CLL B cells; settings: SDF-1α 200 ng/ml; for induction of phosphorylation/activation of AKT (Ser473): 3 or 10 minutes, rhBAFF 50 ng/ml
Experimental: as §1

[6] = tested on: canonical NF-κB1 pathway in CLL B cells; test: Immunoblot of canonical NF-κB1 pathway activation (IκBα degradation/phosphorylation, p65 nuclear translocation) in CLL B cells; settings: concentrations that promote CLL cell survival; rhBAFF 50 ng/ml, rhAPRIL 500 ng/ml
Experimental: as §1
For fractionation experiments, cells were collected by centrifugation and washed with PBS. The cell pellet containing 5×10^6 cells was suspended in 100 μl of hypotonic buffer (50 mM Tris (pH7.4), 5 mM EDTA, 10 mM NaCl, 0.05% NP-40, 1 mM PMSF, 10 μg/ml Aprotinin, 10 μg/ml Leupeptin, 10 μg/ml Pepstatin, 10 mM β-Glycerophosphate, 1 mM Na-Vanadate, 1 mM NaF). After 10 minutes the lysate was spun and the supernatant was collected as cytoplasmic lysates. The pellet was washed 5 times in hypotonic buffer containing 0.1% NP-40. The remaining pellet was suspended in 100 μl RIPA buffer containing protease and phosphatase inhibitors. After an appropriate amount of 3× sample buffer (200 mM Tris (pH 6.8), 30 mM EDTA, 30% Glycerol, 6% SDS) was added, the sample was boiled for 10 minutes, spun for 10 minutes and the supernatant was recovered as nucleus lysates. Anti-NF kappa B p52 and p65 were purchased from Upstate Biotechnology. Anti-SP-1 was purchased from Santa Cruz Biotechnology (Santa Cruz, Calif.).
Cell lysates were prepared with radioimmunoprecipitation assay (RIPA) buffer (10 mM Tris [pH 7.4], 150 mM NaCl, 1% Triton X-100, 0.1% deoxycholate, 0.1% SDS, 5 mM EDTA), containing 1× complete protease inhibitor cocktail (Roche diagnostics), 1 mM sodium fluoride (NaF), and 1 mM sodium vanadate (Na3VO4). Lysates were normalized for total protein (25 μg) and subjected to SDS-PAGE (4-15% gradient gels, Bio-Rad, Hercules, Calif.) and immunoblot assay. We incubated the blots with secondary antibodies that were conjugated with horseradish peroxidase. Blots then were prepared for enhanced chemiluminescence (ECL) detection system (Amersham, Little Chalfont, United Kingdom) and subsequent autoradiography with Super RX film (Fuji, Tokyo, Japan).
For fractionation experiments, cells were collected by centrifugation and washed with PBS. The cell pellet containing 5×10^6 cells was suspended in 100 μl of hypotonic buffer (50 mM Tris [pH7.4], 5 mM EDTA, 10 mM NaCl, 0.05% Nonidet P40 [NP-40]), containing 1× complete protease inhibitor cocktail, 1 mM NaF, and 1 mM Na3VO4. After 10 minutes, the lysate was spun and the supernatant was collected as cytoplasmic lysates. […]

[7] = tested on: NF-κB2/p100 pathway in CLL B cells; test: Immunoblot of alternative NF-κB2 pathway activation (p100 to p52, p52 nuclear translocation) in CLL B cells; settings: concentrations that promote CLL cell survival; rhBAFF 50 ng/ml, rhAPRIL 500 ng/ml, 24 hours
Experimental: as §1
For fractionation experiments, cells were collected by centrifugation and washed with PBS. The cell pellet containing 5×10^6 cells was suspended in 100 μl of hypotonic buffer (50 mM Tris (pH7.4), 5 mM EDTA, 10 mM NaCl, 0.05% NP-40, 1 mM PMSF, 10 μg/ml Aprotinin, 10 μg/ml Leupeptin, 10 μg/ml Pepstatin, 10 mM β-Glycerophosphate, 1 mM Na-Vanadate, 1 mM NaF). After 10 minutes the lysate was spun and the supernatant was collected as cytoplasmic lysates. The pellet was washed 5 times in hypotonic buffer containing 0.1% NP-40. The remaining pellet was suspended in 100 μl RIPA buffer containing protease and phosphatase inhibitors. […]

[8] = tested on: NF-κB1 binding activity in CLL cells; test: Electrophoretic mobility shift assay of NF-κB DNA binding in nuclear extracts of CLL cells; settings: rhBAFF 50 ng/ml or rhAPRIL 500 ng/ml, 24 hours
Experimental: Nuclear proteins were extracted using a nuclear extraction kit (Pierce, Rockford, Ill.) in presence of 1× complete protease inhibitor cocktail (Roche diagnostics). Total protein was measured using a modified Bradford test (Bio-Rad, Hercules, Calif.). 2 μg of nuclear protein extracts were incubated on ice for 30 min with antibodies to p50 and p65 (Santa Cruz Biotechnology). Later, a radiolabeled double stranded probe that encompassed the κB1 site was added, followed by incubation at room temperature for 30 min. Samples were loaded on a 6% acrylamide gel and run at 150 volts for three and a half hours.

[9] = tested on: transfected CLL cells; test: Viability of CLL cells transfected with SR-IκBα or control vector (Amaxa nucleofection); settings: rhBAFF 50 ng/ml or rhAPRIL 500 ng/ml for 24 hours, added four hours after transfection
Experimental: as §2, with “of 1×10^6/mL” for “of 1×10^6/ml”, “as described.” for “as described.22”, “of 80” for “of 60”, “and 2” for “and 10”
CLL cells were transfected using the Amaxa nucleofection technology (Amaxa). Cells were resuspended in solution from human B cell nucleofector kit, also available as part of Amaxa cell optimization kit, according to the manufacturer's instructions. Briefly, 100 μl of 5×10^6 cell suspension mixed with 5 μg cDNA was transferred to the provided cuvette and nucleofected with an Amaxa Nucleofector apparatus (Amaxa). Cells were transfected using the U-15 pulsing parameter and immediately transferred into wells containing 37° C. pre-warmed culture medium in 12-well plates. After transfection, cells were cultured from 4 to 48 hours before analyzing by FACS. pmaxGFP was used to gauge transfection efficiency.

[10] = 3 minutes, 4F at 50 nM or 500 nM

Substance | changes in levels of Bcl-2, Bax, or Bcl-xL [1] | induction of Mcl-1 expression in CLL B cells [2] | induction of phosphorylation of ERK1/2 [3] | viability of isolated CLL cells cultured without NLC versus control [4] | induction of phosphorylation/activation of AKT (Ser473) [5] | activation of classical/canonical NF-κB pathway (IκBα degradation, p65 translocation to nucleus) [6] | activation of NF-κB2 (processing of p100 to p52, translocation of p52 to the nucleus) [7] | NF-κB consensus motif binding proteins in nuclear extracts (EMSA) [8] | viability of CLL cells transfected with SR-IκBα [9] | viability of CLL cells transfected with control expression plasmid [9] | block of SDF-1α-induced phosphorylation of ERK1/2 [3, 10] | block of SDF-1α-induced phosphorylation of AKT at Ser473 [5, 10]
rhBAFF: recombinant human B cell-activating factor of the TNF family | did not observe significant changes | induced to express increased levels of Mcl-1 | could not induce phosphorylation of p44/42 mitogen-activated phosphokinase (MAPK, ERK1/2) | significant greater than that of control treated CLL cells; also recorded: significantly improved the viability of CLL cells | could not induce | induced degradation of the inhibitor of kappa B (IκBα) and translocation of p65 to the nuclear fraction; also recorded: induced translocation of p65 to the nucleus | could induce activation of NF-κB2; also recorded: could induce translocation of p52 to the nucleus | increased amounts of proteins capable of binding NF-κB consensus motifs | had no effect on CLL cells transfected with SR-IκBα | significantly enhanced the viability of the cells transfected with the control expression plasmid | – | –
SDF-1α | did not observe significant changes | could not induce isolated CLL B cells to express higher levels of Mcl-1 | induced phosphorylation of ERK1/2 | – | induced phosphorylation of AKT at Ser473 | did not have this activity | did not observe activation of NF-κB2 | – | – | – | – | –
4F-benzoyl-TE14011 [reference compound] | – | – | – | – | – | – | – | – | – | – | could be blocked | could be blocked
rhAPRIL: recombinant human a proliferation-inducing ligand, purchased from Alexis Biochemicals | – | induced to express increased levels of Mcl-1 | could not induce phosphorylation of p44/42 mitogen-activated phosphokinase (MAPK, ERK1/2) | significant greater than that of control treated CLL cells; also recorded: significantly improved the viability of CLL cells | could not induce | induced degradation of the inhibitor of kappa B (IκBα) and translocation of p65 to the nuclear fraction; also recorded: induced translocation of p65 to the nucleus | did not observe activation of NF-κB2; also recorded: did not observe translocation of p52 to the nucleus | increased amounts of proteins capable of binding NF-κB consensus motifs | had no effect on CLL cells transfected with SR-IκBα | significantly enhanced the viability of the cells transfected with the control expression plasmid | – | –
